# Earlier results in US7947467B2, “Methods for monitoring pathological conditions in a subject” (Common Sense Ltd., priority 2001, dated 2011).
# Conditions: not given
row,Compound,aqueous pH transition range
1,Cc1cc(C2(c3cc(C)c(O)c(Br)c3)OS(=O)(=O)c3ccccc32)cc(Br)c1O [Bromcresol Purple],5.2-6.8
2,Cc1cc2nc3ccc(N(C)C)cc3nc2cc1N.Cl [Neutral Red],6.8-8.0
3,Cc1c(C2(c3cc(C(C)C)c(O)c(Br)c3C)OS(=O)(=O)c3ccccc32)cc(C(C)C)c(O)c1Br [Bromthymol Blue],6.0-7.6
4,Cc1cc(C2(c3ccc(O)c(C)c3)OS(=O)(=O)c3ccccc32)ccc1O [Cresol Red],7.2-8.8
5,Nitrazine Yellow,6.0-7.2
6,O=C1c2ccccc2C(=O)c2c1ccc(O)c2O [Alizarin],5.5-6.8
7,O=S1(=O)OC(c2ccc(O)c(Cl)c2)(c2ccc(O)c(Cl)c2)c2ccccc21 [Chlorophenol Red],5.2-8.8
8,Cc1cc(O)ccc1C1(c2ccc(O)cc2C)OS(=O)(=O)c2ccccc21 [m-Cresol purple],7.4-9.0
9,Cc1cc(O)c(C(C)C)cc1C1(c2cc(C(C)C)c(O)cc2C)OS(=O)(=O)c2ccccc21 [Thymol Blue],8.0-9.2
10,Cc1cc(C2(c3cc(C)c(O)c(Br)c3C)OS(=O)(=O)c3ccccc32)c(C)c(Br)c1O [Bromoxylenol Blue],6.0-7.6
11,Cc1cc(C2(c3cc(C)c(O)cc3C)OS(=O)(=O)c3ccccc32)c(C)cc1O [Xylenol Blue],8.0-9.6

# Conditions: in aqueous solution
row,Compound,pKa
1,Nitrazine Yellow,6.6
